Experimental data as given in ChEMBL document CHEMBL1127584, “Crystal-structure-based design and synthesis of novel C-terminal inhibitors of HIV protease” (J Med Chem, 1994).
pKi: −log10 of the molar value.

What follows are compounds tested against Human immunodeficiency virus type 1 protease (Human immunodeficiency virus 1, UniProt Q72874) (assay: Inhibition of recombinant HIV-1 protease).

pKi	SMILES
7.48	NC(=O)C[C@H](NC(=O)c1ccc2ccccc2n1)C(=O)NC(Cc1ccccc1)[C@@H](O)CCC(=O)NC(c1cccc(C(F)(F)F)c1)c1cc2ccccc2[nH]1 (some centres undefined)
7.37	NC(=O)C[C@H](NC(=O)c1ccc2ccccc2n1)C(=O)NC(Cc1ccccc1)[C@@H](O)CCC(=O)NC(c1ccccc1)c1cc2ccccc2[nH]1 (some centres undefined)
5.89	NC(=O)C[C@H](NC(=O)c1ccc2ccccc2n1)C(=O)NC(Cc1ccccc1)[C@@H](O)C[C@@H](Cc1ccccc1)C(=O)NC(c1ccccc1)c1cc2ccccc2[nH]1 (some centres undefined)
6.32	NC(=O)C[C@H](NC(=O)c1ccc2ccccc2n1)C(=O)NC(Cc1ccccc1)[C@@H](O)CCC(=O)NC(c1ccccc1)c1nc2ccccc2[nH]1 (some centres undefined)
7.41	Cc1cccc(C(NC(=O)CC[C@H](O)C(Cc2ccccc2)NC(=O)[C@H](CC(N)=O)NC(=O)c2ccc3ccccc3n2)c2cc3ccccc3[nH]2)c1 (some centres undefined)

Second part, the compound before the results:

SMILES	pKi
C[C@H](N)C(=O)N[C@@H](C)C(=O)N[C@@H](Cc1ccccc1)[C@@H](O)CCC(=O)NC(c1ccccc1)c1cc2ccccc2[nH]1 (some centres undefined)	6.70
NC(=O)C[C@H](NC(=O)c1ccc2ccccc2n1)C(=O)NC(Cc1ccccc1)[C@@H](O)CCC(=O)NC(c1cc2ccccc2[nH]1)C1CCCCC1 (some centres undefined)	6.74
COC(=O)[C@@H](CC(=O)[C@@H](NC(=O)CC[C@H](O)[C@H](Cc1ccccc1)NC(=O)[C@H](C)NC[C@H](C)N)C(C)C)C(C)C	7.74
CC(C)CC(=O)N[C@H](C(=O)N[C@H](C(=O)N[C@@H](CC(C)C)[C@@H](O)CC(=O)N[C@@H](C)C(=O)N[C@@H](CC(C)C)[C@@H](O)CC(=O)O)C(C)C)C(C)C [PEPSTATIN]	5.51
